Measurements as given in US6613718B2, “Aryl ether derivatives and processes for their preparation and herbicidal and desiccant compositions containing them” (Ishihara Sangyo Kaisha, Ltd., priority 2001, dated 2003).

Legend:
Format in all cases: in vivo
Conditions in all cases: 14 days after application
[1] = system: johnsongrass (Sorghum halepense, SORHA); test: Post-emerge greenhouse herbicide activity screening, phytotoxicity rating
Description: (§1) A standard greenhouse herbicide activity screening system was used to evaluate the herbicidal efficacy and crop safety of these test compounds. Seven broadleaf weed species including redroot pigweed (Amaranthus retroflexus, AMARE), velvetleaf (Abutilon theophrasti, ABUTH), sicklepod (Cassia obtusifolia, CASOB), ivyleaf morningglory (Ipomoea hederacea, IPOHE), lambsquarters (Chenopodium album, CHEAL), common ragweed (Ambrosia artemisiifolia L., AMBEL), and cocklebur (Xanthium strumarium, XANST) were used as test species. Four grass weed species including green foxtail (Setaria viridis, SETVI), barnyardgrass (Echinochloa crus-galli, ECHCG), johnsongrass (Sorghum halepense, SORHA), and large crabgrass (Digitaria sanguinalis, DIGSA) were also used. In addition, three crop species, field corn (Zea mays L., var. Dekalb 535, CORN), soybean (Glycine max L., var. Pella 86, SOY), and upland rice (Oryza sp., var.Tebonnet, RICE) were included.
(§2) All plants were grown in 10 cm square plastic pots which were filled with a sandy loam soil mix. For pre-emerge tests, seeds were planted one day prior to application of the test compounds. For post-emerge tests, seeds were planted 8-21 days prior to the test to allow emergence and good foliage development prior to application of the test substances. At the time of the post-emerge application, plants of all species were usually at the 2-3 leaf stage of development.
(§3) All test compounds were dissolved in acetone and applied to the test units in a volume of 187 1/ha. Test materials were applied at rates ranging from 15 g ai/ha to 1000 g ai/ha using a track sprayer equipped with a TJ8001E even flow flat fan spray nozzle. Plants were arranged on a shelf so that the top of the canopy (post-emerge) or top of the soil surface (pre-emerge) was 40-45 cm below the nozzle. Pressurized air was used to force the test solution through the nozzle as it was mechanically advanced (via electrically driven chain drive) over the top of all test plants/pots. This application simulates a typical commercial field herbicide application.
(§4) In the post-emerge test, a commercial non-ionic surfactant was also included (0.25% v/v) to enhance wetting of the leaf surfaces of target plants. Immediately after application, test units of the pre-emerge applications were watered at the soil surface to incorporate the test materials. Subsequently, these test units were bottom-watered. Post-emerge test units were always bottom-watered.
(§5) At 14 days after application of the test materials, phytotoxicity ratings were recorded. A rating scale of 0-100 was used as previously described in Research Methods in Weed Science, 2nd edition, B. Truelove, Ed., Southern Weed Science Society, Auburn University, Auburn, Ala., 1977. Briefly, “0” corresponds to no damage and “100” corresponds to complete death of all plants in the test unit. This scale was used both to determine efficacy against weed species and damage to crop species. Herbicide activity data for various compounds of this invention, which are shown by compound No. in Tables I-VI, are shown in Tables VIII-IX.

[2] = system: common ragweed (Ambrosia artemisiifolia L., AMBEL); test: as above
Description: as §1, §2, §3, §4, §5

[3] = system: ivyleaf morningglory (Ipomoea hederacea, IPOHE); test: as above
Description: as §1, §2, §3, §4, §5

[4] = system: lambsquarters (Chenopodium album, CHEAL); test: as above
Description: as §1, §2, §3, §4, §5

[5] = system: green foxtail (Setaria viridis, SETVI); test: as above
Description: as §1, §2, §3, §4, §5

[6] = system: large crabgrass (Digitaria sanguinalis, DIGSA); test: as above
Description: as §1, §2, §3, §4, §5

[7] = system: barnyardgrass (Echinochloa crus-galli, ECHCG); test: as above
Description: as §1, §2, §3, §4, §5

[8] = system: redroot pigweed (Amaranthus retroflexus, AMARE); test: as above
Description: as §1, §2, §3, §4, §5

[9] = system: velvetleaf (Abutilon theophrasti, ABUTH); test: as above
Description: as §1, §2, §3, §4, §5

[10] = system: sicklepod (Cassia obtusifolia, CASOB); test: as above
Description: as §1, §2, §3, §4, §5

[11] = system: upland rice (Oryza sp., var.Tebonnet, RICE); test: Post-emerge greenhouse screening, crop safety (phytotoxicity rating)
Description: as §1, §2, §3, §4, §5

[12] = system: soybean (Glycine max L., var. Pella 86, SOY); test: as above
Description: as §1, §2, §3, §4, §5

[13] = system: upland rice (Oryza sp., var.Tebonnet, RICE); test: Pre-emerge greenhouse screening, crop safety (phytotoxicity rating)
Description: as §1, §2, §3, §4, §5

[14] = system: soybean (Glycine max L., var. Pella 86, SOY); test: as above
Description: as §1, §2, §3, §4, §5

[15] = system: field corn (Zea mays L., var. Dekalb 535, CORN); test: as above
Description: as §1, §2, §3, §4, §5

[16] = system: field corn (Zea mays L., var. Dekalb 535, CORN); test: Post-emerge greenhouse screening, crop safety / corn selectivity (phytotoxicity rating)
Description: as §1, §2, §3, §4, §5

[17] = system: johnsongrass (Sorghum halepense, SORHA); test: Pre-emerge greenhouse herbicide activity screening, phytotoxicity rating
Description: as §1, §2, §3, §4, §5

[18] = system: common ragweed (Ambrosia artemisiifolia L., AMBEL); test: as above
Description: as §1, §2, §3, §4, §5

[19] = system: ivyleaf morningglory (Ipomoea hederacea, IPOHE); test: as above
Description: as §1, §2, §3, §4, §5

[20] = system: lambsquarters (Chenopodium album, CHEAL); test: as above
Description: as §1, §2, §3, §4, §5

[21] = system: green foxtail (Setaria viridis, SETVI); test: as above
Description: as §1, §2, §3, §4, §5

[22] = system: large crabgrass (Digitaria sanguinalis, DIGSA); test: as above
Description: as §1, §2, §3, §4, §5

[23] = system: barnyardgrass (Echinochloa crus-galli, ECHCG); test: as above
Description: as §1, §2, §3, §4, §5

[24] = system: redroot pigweed (Amaranthus retroflexus, AMARE); test: as above
Description: as §1, §2, §3, §4, §5

[25] = system: velvetleaf (Abutilon theophrasti, ABUTH); test: as above
Description: as §1, §2, §3, §4, §5

[26] = system: sicklepod (Cassia obtusifolia, CASOB); test: as above
Description: as §1, §2, §3, §4, §5

Cn1c(C(F)(F)F)cc(=O)n(-c2cc(Oc3ccccc3)c(Cl)cc2F)c1=S [Compound 1-47]
SORHA phytotoxicity rating (0-100 scale) ([1]; 125 g ai/ha): 0 | SORHA phytotoxicity rating (0-100 scale) ([1]; 250 g ai/ha): 0 | AMBEL phytotoxicity rating (0-100 scale) ([2]; 125 g ai/ha): 70 | AMBEL phytotoxicity rating (0-100 scale) ([2]; 250 g ai/ha): 75 | IPOHE phytotoxicity rating (0-100 scale) ([3]; 125 g ai/ha): 75 | IPOHE phytotoxicity rating (0-100 scale) ([3]; 250 g ai/ha): 85 | CHEAL phytotoxicity rating (0-100 scale) ([4]; 125 g ai/ha): 99 | CHEAL phytotoxicity rating (0-100 scale) ([4]; 250 g ai/ha): 100 | SETVI phytotoxicity rating (0-100 scale) ([5]; 125 g ai/ha): 50 | SETVI phytotoxicity rating (0-100 scale) ([5]; 250 g ai/ha): 75 | DIGSA phytotoxicity rating (0-100 scale) ([6]; 125 g ai/ha): 10 | DIGSA phytotoxicity rating (0-100 scale) ([6]; 250 g ai/ha): 35 | ECHCG phytotoxicity rating (0-100 scale) ([7]; 125 g ai/ha): 60 | ECHCG phytotoxicity rating (0-100 scale) ([7]; 250 g ai/ha): 65 | AMARE phytotoxicity rating (0-100 scale) ([8]; 125 g ai/ha): 100 | AMARE phytotoxicity rating (0-100 scale) ([8]; 250 g ai/ha): 100 | ABUTH phytotoxicity rating (0-100 scale) ([9]; 125 g ai/ha): 100 | ABUTH phytotoxicity rating (0-100 scale) ([9]; 250 g ai/ha): 100 | CASOB phytotoxicity rating (0-100 scale) ([10]; 125 g ai/ha): 65 | CASOB phytotoxicity rating (0-100 scale) ([10]; 250 g ai/ha): 65 | RICE crop damage, phytotoxicity rating (0-100 scale) ([11]; 125 g ai/ha): 0 | RICE crop damage, phytotoxicity rating (0-100 scale) ([11]; 250 g ai/ha): 0 | SOY crop damage, phytotoxicity rating (0-100 scale) ([12]; 125 g ai/ha): 15 | SOY crop damage, phytotoxicity rating (0-100 scale) ([12]; 250 g ai/ha): 40 | RICE crop damage, phytotoxicity rating (0-100 scale) ([13]; 125 g ai/ha): 15 | RICE crop damage, phytotoxicity rating (0-100 scale) ([13]; 250 g ai/ha): 25 | SOY crop damage, phytotoxicity rating (0-100 scale) ([14]; 125 g ai/ha): 50 | SOY crop damage, phytotoxicity rating (0-100 scale) ([14]; 250 g ai/ha): 65 | CORN crop damage, phytotoxicity rating (0-100 scale) ([15]; 125 g ai/ha): 5 | CORN crop damage, phytotoxicity rating (0-100 scale) ([15]; 250 g ai/ha): 8 | CORN crop damage, phytotoxicity rating (0-100 scale) ([16]; 125 g ai/ha): 0 | CORN crop damage, phytotoxicity rating (0-100 scale) ([16]; 250 g ai/ha): 0 | SORHA phytotoxicity rating (0-100 scale) ([17]; 125 g ai/ha): 50 | SORHA phytotoxicity rating (0-100 scale) ([17]; 250 g ai/ha): 55 | AMBEL phytotoxicity rating (0-100 scale) ([18]; 125 g ai/ha): 95 | AMBEL phytotoxicity rating (0-100 scale) ([18]; 250 g ai/ha): 99 | IPOHE phytotoxicity rating (0-100 scale) ([19]; 125 g ai/ha): 95 | IPOHE phytotoxicity rating (0-100 scale) ([19]; 250 g ai/ha): 98 | CHEAL phytotoxicity rating (0-100 scale) ([20]; 125 g ai/ha): 100 | CHEAL phytotoxicity rating (0-100 scale) ([20]; 250 g ai/ha): 100 | SETVI phytotoxicity rating (0-100 scale) ([21]; 125 g ai/ha): 100 | SETVI phytotoxicity rating (0-100 scale) ([21]; 250 g ai/ha): 100 | DIGSA phytotoxicity rating (0-100 scale) ([22]; 125 g ai/ha): 95 | DIGSA phytotoxicity rating (0-100 scale) ([22]; 250 g ai/ha): 100 | ECHCG phytotoxicity rating (0-100 scale) ([23]; 125 g ai/ha): 80 | ECHCG phytotoxicity rating (0-100 scale) ([23]; 250 g ai/ha): 85 | AMARE phytotoxicity rating (0-100 scale) ([24]; 125 g ai/ha): 100 | AMARE phytotoxicity rating (0-100 scale) ([24]; 250 g ai/ha): 100 | ABUTH phytotoxicity rating (0-100 scale) ([25]; 125 g ai/ha): 100 | ABUTH phytotoxicity rating (0-100 scale) ([25]; 250 g ai/ha): 100 | CASOB phytotoxicity rating (0-100 scale) ([26]; 125 g ai/ha): 90 | CASOB phytotoxicity rating (0-100 scale) ([26]; 250 g ai/ha): 99
